What was measured:
[1] = biological target: cAMP-dependent protein kinase (PKA) (Homo sapiens, UniProt P22694+P17612+P22612); assay: Activation of cAMP dependent protein kinase (PKA); assay type: functional
[2] = Lipophilicity relative to cAMP (log Kw=1); assay type: physicochemical

SMILES | EC50 [1] [µM] | Log Kw [2]
Nc1ncnc2c1nc(Sc1ccc(Cl)cc1)n2[C@@H]1O[C@@H]2COP(=O)(O)O[C@H]2[C@H]1O | 20 | –
CC(=O)OCOP1(=O)OC[C@@H]2O[C@@H](n3c(Br)nc4c(N)ncnc43)[C@H](O)[C@@H]2O1 (some centres not stated) | – | > 2
CC(=O)OCOP1(=O)OC[C@@H]2O[C@@H](n3c(N4CCCCC4)nc4c(N)ncnc43)[C@H](O)[C@@H]2O1 (some centres not stated) | 10 | > 3.5
CC(=O)OCOP1(=O)OC[C@@H]2O[C@@H](n3c(NCCO)nc4c(N)ncnc43)[C@H](O)[C@@H]2O1 (some centres not stated) | – | > 2
CC(=O)OCOP1(=O)OC[C@@H]2O[C@@H](n3c(Sc4ccc(Cl)cc4)nc4c(N)ncnc43)[C@H](O)[C@@H]2O1 (some centres not stated) | 0.15 | > 4

— ChEMBL document CHEMBL1129902, “Bioactivatable derivatives of 8-substituted cAMP-analogues” (Bioorg Med Chem Lett, 1997)
